From article PMC4591828, “Bacterial Rotary Export ATPases Are Allosterically Regulated by the Nucleotide Second Messenger Cyclic-di-GMP” (The Journal of Biological Chemistry, 2015) come the findings set out here.

Each structure is given as a SMILES string.

In assay [1] the test system is T1, FliIΔ1–18.
T1 construct: gene fliI; N-terminal truncation lacking first 18 residues, N-terminal His6 tag (pETNdeM-11), expressed in E. coli
The class given is biochemical. Particulars: ATP substrate, 2 mM MgCl2, pH 8.0; allosteric.

For assay [2], the target named is T2, FliIHis.
T2 construct: gene fliI
The experiment in a line: pyruvate kinase/lactate dehydrogenase-linked ATPase assay. The class given is biochemical, Pseudomonas fluorescens. The conditions noted are these: 1 mM ATP, 2 mM MgCl2, pH 8.0; allosteric.

In another assay the target is T3, HrcNHis (Pseudomonas syringae group genomosp. 3, UniProt Q887B5).
T3 construct: gene sctN; full-length, N-terminal His6 tag (pETNdeM-11), expressed in E. coli
Described as above. In kind it is biochemical.

Assay [3] has as its system T2, FliIHis. The conditions noted are these: no cdG; 2 mM MgCl2, 10 mM KCl, pH 8.0.
The subject of assay [4] is T4, FliIΔ1–18.
T4 construct: gene fliI
The conditions noted are these: no cdG; 2 mM MgCl2, 10 mM KCl, pH 8.0.

T3 sequence (Q887B5 whole entry): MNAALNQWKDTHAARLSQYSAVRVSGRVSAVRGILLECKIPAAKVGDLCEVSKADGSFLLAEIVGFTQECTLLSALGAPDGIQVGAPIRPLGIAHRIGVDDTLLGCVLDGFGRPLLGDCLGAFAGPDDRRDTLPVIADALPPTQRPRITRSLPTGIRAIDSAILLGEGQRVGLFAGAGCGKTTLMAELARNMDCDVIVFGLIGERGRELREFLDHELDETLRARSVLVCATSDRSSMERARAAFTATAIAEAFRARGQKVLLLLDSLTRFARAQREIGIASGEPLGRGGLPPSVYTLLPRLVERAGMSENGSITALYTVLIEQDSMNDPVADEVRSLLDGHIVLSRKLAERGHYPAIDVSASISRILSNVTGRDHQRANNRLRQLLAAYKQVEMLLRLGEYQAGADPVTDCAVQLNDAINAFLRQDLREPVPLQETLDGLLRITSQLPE

Take `Nc1nc2c(ncn2[C@@H]2O[C@@H]3COP(=O)(O)O[C@H]4[C@@H](O)[C@H](n5cnc6c(=O)[nH]c(N)nc65)O[C@@H]4COP(=O)(O)O[C@H]3[C@H]2O)c(=O)[nH]1` [cdG]: the IC50 in the assay on FliIΔ1–18 [1] worked out at 48.8 ± 0.159 µM; on FliIHis [2], 36.7 ± 1.13 µM; against HrcNHis, 25.1 ± 1.14 µM.
With `Nc1ncnc2c1ncn2[C@@H]1O[C@H](COP(=O)(O)OP(=O)(O)OP(=O)(O)O)[C@@H](O)[C@H]1O` [ATP], the Km came to 480 ± 30 nM with FliIHis [3] and 450 ± 40 nM in the assay on FliIΔ1–18 [4].
